Results reported in patent publication US4088772A, “Methanodibenzocycloheptapyrroles” (E. I. Du Pont de Nemours and Company, priority 1975, dated 1978).
Structures can show the parent of a compound that is named as a salt. Where two headings read alike, the source gives them in different places.

Columns and labels:
in vivo = settings: mouse, in vivo, po
female white mice = assay: animal or person; settings: Mus musculus, po, oral, mice
female CF1 S mice = assay: Mouse spontaneous motor activity (activity cage); type: in vivo, mouse (CF1 S female); settings: po, 0.5 h, read-out: Exploratory Loss Activity Cage ED50
Protocol: Mouse Spontaneous Motor Activity (Activity Cage)
Twenty-four per dose, 16- 20 g or 18-22 g, female CF1 S mice, fasted 16- 22 hours, are intubated (in pairs) with drug at t doses such as 0, 1, 3, 9, 27 and 81 mg/kg in 10 ml/kg of aqueous 1% methylcellulose. The mice are then put in separate "shoe-box" cages (12 × 7.5 × 5.3 inches plastic with a 0.33 inch mesh stainless steel lid), and 20 minutes after intubation the animals in pairs are moved to covered Woodard Photoelectric Activity Chambers (central light source type measurement floor area = 96 in^2). Ten minutes later (30 minutes after dosing) a 5-minute count is taken. Counting chamber characteristics are balanced out by counting 2 pairs of mice from each dose level in each of 6 different counting chambers. Half of each test is run in the a.m. and the other half is run in the p.m. to minimize "biological clock" variations.
Canad. Biol. 20, 239-50 (1961), raw counts are thus transformed for statistical treatment (Student's t test). The means of the square roots then are squared and an ED50 for stimulation or depression (or both) is determined graphically.

[1] = tested on: phenylquinone-induced writhing; assay: Phenylquinone writhing test (analgesia); type: in vivo, mouse (Carworth CF1 S female); settings: Mus musculus
Description: This mouse test is predictive of analgesic response in humans. [E. Siegmund, R. Cadmus and G. Lee, Proc. Soc.
ED50 values were obtained graphically from the data.

[2] = read-out: Catatonia ED50, Table 1
[3] = read-out: Exploratory Loss Visual ED50, Table 1
[4] = read-out: Muscle Tone ED50, Table 1
[5] = read-out: Reflexes Grip ED50, Table 1
[6] = read-out: Reflexes Lift ED50, Table 1
[7] = read-out: Reflexes Pinna ED50, Table 1
[8] = read-out: Catatonia ED50, Table III
[9] = read-out: Exploratory Loss Visual ED50, Table III
[10] = read-out: Muscle Tone ED50, Table III
[11] = read-out: Ptosis ED50, Table III
[12] = read-out: Reflexes Grip ED50, Table III
[13] = read-out: Reflexes Lift ED50, Table III
[14] = read-out: Reflexes Pinna ED50, Table III

| SMILES | LD50 at 24 h (in vivo) [mg/kg] | ED50 (female white mice; [2]) [mg/kg] | ED50 (female white mice; [3]) [mg/kg] | ED50 (female white mice; [4]) [mg/kg] | ED50 (female white mice; read-out: Ptosis ED50, Table 1) [mg/kg] | ED50 (female white mice; [5]) [mg/kg] | ED50 (female white mice; [6]) [mg/kg] | ED50 (female white mice; [7]) [mg/kg] | ED50 (in vivo) [mg/kg] | ED50 ([1]; po, Table 1, mice) [mg/kg] | other results |
| --- | --- | --- | --- | --- | --- | --- | --- | --- | --- | --- | --- |
| c1ccc2c(c1)[C@@H]1C[C@@]3(CN(CC4CCC4)C[C@H]23)c2ccccc21 (relative stereo) [Example 19, 2-Cyclobutylmethyl-2,3,8,12b-tetrahydro-1H-3a,8-methanodibenzo[3,4:6,7]cyclohepta[1,2-c]pyrrole] | > 324 | 20 | 20 | 12 | 7 | 200 | 20 | 12 | – | – | ED50 (in vivo; Tremors ED50, Table 1, mice): > 324 mg/kg; ED50 (female CF1 S mice): 1 mg/kg; ED50 ([1]; Table 1, oral, mice): 5 mg/kg |
| c1ccc2c(c1)C1CC3(CN(CCCC4CCCC4)CC23)c2ccccc21 (centres unmarked) [Example 24, 2-(3-Cyclopentylpropyl)-2,3,8,12b-tetrahydro-1H-3a,8-methanodibenzo[3,4:6,7]cyclohepta[1,2-c]pyrrole] | > 324 | 7 | 7 | – | – | > 324 | 17 | 17 | > 324 | 6 | – |
| C1=CCC(CN2CC3c4ccccc4C4CC3(C2)c2ccccc24)=CC1 (centres unmarked) [Example 28, 2-(1,4-Cyclohexadienylmethyl)-2,3,8,12b-tetrahydro-1H-3a,8-methanodibenzo[3,4:6,7]cyclohepta[1,2-c]pyrrole] | > 324 | 24 | 29 | 37 | 17 | > 324 | 57 | 32 | > 324 | 8.6 | – |
| c1ccc2c(c1)C1CC3(CN(CCC4CCCCC4)CC23)c2ccccc21 (centres unmarked) [Example 29, 2-(2-Cyclohexylethyl)-2,3,8,12b-tetrahydro-1H-3a,8-methanodibenzo[3,4:6,7]cyclohepta[1,2-c]pyrrole] | > 324 | 21 | 24 | 24 | 17 | 290 | 78 | 50 | > 324 | 28 | – |
| c1ccc2c(c1)C1CC3(CN(CCCC4CCCCC4)CC23)c2ccccc21 (centres unmarked) [Example 30, 2-(3-Cyclohexylpropyl)-2,3,8,12b-tetrahydro-1H-3a,8-methanodibenzo[3,4:6,7]cyclohepta[1,2-c]pyrrole] | > 324 | 12 | 4 | – | 4 | 200 | 12 | – | > 324 | 7 | – |
| c1ccc2c(c1)C1CC3(CN(CCCCC4CCCCC4)CC23)c2ccccc21 (centres unmarked) [Example 31, 2-(4-Cyclohexylbutyl)-2,3,8,12b-tetrahydro-1H-3a,8-methanodibenzo[3,4:6,7]cyclohepta[1,2-c]pyrrole] | > 324 | 26 | 21 | 24 | 17 | > 324 | 37 | 32 | > 324 | 14 | – |
| c1ccc2c(c1)C1CC3(CN(CC4CCCCCC4)CC23)c2ccccc21 (centres unmarked) [Example 32, 2-Cycloheptylmethyl-2,3,8,12b-tetrahydro-1H-3a,8-methanodibenzo[3,4:6,7]cyclohepta[1,2-c]pyrrole] | > 324 | 12 | 7 | 36 | < 4 | 200 | 20 | 60 | > 324 | 2.9 | – |
| CC(C1CCCC1)N1C[C@@H]2c3ccccc3[C@@H]3C[C@@]2(C1)c1ccccc13 (some centres unmarked) [Example 50, 2-(1-Cyclopentylethyl)-2,3,8,12b-tetrahydro-1H-3a,8-methanodibenzo[3,4:6,7]cyclohepta[1,2-c]pyrrole] | > 324 | 20 | 20 | 36 | 60 | 300 | 60 | 36 | > 324 | 23 | – |
| CC1CCCC1CN1C[C@@H]2c3ccccc3[C@@H]3C[C@@]2(C1)c1ccccc13 (some centres unmarked) [Example 51, 2-(2-Methylcyclopentylmethyl)-2,3,8,12b-tetrahydro-1H-3a,8-methanodibenzo[3,4:6,7]cyclohepta[1,2-c]pyrrole] | > 324 | 60 | 100 | 60 | 36 | 300 | 60 | 36 | > 324 | 10 | – |
| CC1CCC(CN2C[C@@H]3c4ccccc4[C@@H]4C[C@@]3(C2)c2ccccc24)C1 (some centres unmarked) [Example 52, 2-(3-Methylcyclopentylmethyl)-2,3,8,12b-tetrahydro-1H-3a,8-methanodibenzo[3,4:6,7]cyclohepta[1,2-c]-pyrrole] | > 324 | 12 | 12 | 12 | 7 | 200 | 12 | 7 | > 324 | 5 | – |
| c1ccc2c(c1)[C@@H]1C[C@@]3(CN(CC4CCCO4)C[C@H]23)c2ccccc21 (some centres unmarked) [Example 62, 2-(2-Tetrahydrofurylmethyl)-2,3,8,12b-tetrahydro-1H-3a,8-methanodibenzo[3,4:6,7]cyclohepta[1,2-c]pyrrole] | > 324 | 20 | 12 | 20 | – | 200 | 20 | – | – | 7 | – |
| CC(O)c1ccc2c(c1)[C@]13C[C@H]2c2ccccc2[C@H]1CN(CC1CCCC1)C3 (stereo partly drawn) [Example 67, 5-(α-Hydroxyethyl)-2-cyclopentylmethyl-2,3,8,12b-tetrahydro-1H-3a,8-methanodibenzo[3,4:6,7]cyclohepta[1,2-c]-pyrrole Hydrochloride] | > 450 | – | – | – | – | – | – | – | – | – | ED50 (female white mice; [8]): 5 mg/kg; ED50 (female white mice; [9]): 5 mg/kg; ED50 (female white mice; [10]): 6 mg/kg; ED50 (female white mice; [11]): 3.6 mg/kg; ED50 (female white mice; [12]): 187 mg/kg; ED50 (female white mice; [13]): 21 mg/kg; ED50 (female white mice; [14]): 5.6 mg/kg; ED50 ([1]; po, Table III, mice): 3.4 mg/kg |
| C=CCC(O)c1ccc2c(c1)[C@]13C[C@H]2c2ccccc2[C@H]1CN(CC1CCCC1)C3 (some centres unmarked) [Example 75, 5-[1-(1-Hydroxy-3-butenyl)]-2-cyclopentylmethyl-2,3,8,12b-tetrahydro-1H-3a,8-methanodibenzo[3,4:6,7]cyclohepta[1,2-c]pyrrole Hydrochloride] | > 324 | – | – | – | – | – | – | – | – | – | ED50 (female white mice; [8]): 36 mg/kg; ED50 (female white mice; [9]): 60 mg/kg; ED50 (female white mice; [10]): 36 mg/kg; ED50 (female white mice; [11]): 12 mg/kg; ED50 (female white mice; [12]): 200 mg/kg; ED50 (female white mice; [13]): 20 mg/kg; ED50 (female white mice; [14]): 7 mg/kg; ED50 ([1]; po, Table III, mice): 11 mg/kg |
